# Data: ChEMBL document CHEMBL5230112, “Covalent inhibitors of GAPDH: From unspecific warheads to selective compounds” (Eur J Med Chem, 2020)
# How the values were obtained:
# [1] = biological target: T1, Glyceraldehyde-3-phosphate dehydrogenase (Homo sapiens, UniProt P04406); experiment: Inhibition of human GAPDH
# Target sequence in this assay (P04406 2-335 limits assumed): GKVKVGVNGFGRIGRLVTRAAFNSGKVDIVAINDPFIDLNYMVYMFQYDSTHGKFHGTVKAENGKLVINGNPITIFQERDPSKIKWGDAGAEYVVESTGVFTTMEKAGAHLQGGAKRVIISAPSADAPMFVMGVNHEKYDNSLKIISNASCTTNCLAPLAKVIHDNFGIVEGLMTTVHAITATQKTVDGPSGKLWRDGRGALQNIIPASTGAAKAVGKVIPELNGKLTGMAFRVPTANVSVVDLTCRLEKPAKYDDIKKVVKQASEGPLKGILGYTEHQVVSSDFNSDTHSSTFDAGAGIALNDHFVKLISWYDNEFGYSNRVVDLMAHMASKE
# Saccharomyces cerevisiae = experiment: Irreversible inhibition of yeast GAPDH holoenzyme
# [2] = biological target: T1, Glyceraldehyde-3-phosphate dehydrogenase; experiment: Inhibition of GAPDH (unknown origin) measured after 1 hr
# Target sequence in this assay (P04406 whole entry): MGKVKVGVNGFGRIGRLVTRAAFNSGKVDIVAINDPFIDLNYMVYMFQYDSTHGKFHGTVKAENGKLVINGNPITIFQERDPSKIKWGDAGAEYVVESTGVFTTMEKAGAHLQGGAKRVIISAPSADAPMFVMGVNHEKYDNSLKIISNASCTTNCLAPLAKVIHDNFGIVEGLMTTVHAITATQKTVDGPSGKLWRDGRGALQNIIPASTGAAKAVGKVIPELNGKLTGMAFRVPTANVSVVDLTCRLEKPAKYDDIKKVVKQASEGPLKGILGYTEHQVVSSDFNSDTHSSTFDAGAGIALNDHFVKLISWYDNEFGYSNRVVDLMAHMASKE
# [3] = biological target: Glyceraldehyde-3-phosphate dehydrogenase (Oryctolagus cuniculus) (UniProt P46406); experiment: Inhibition of rabbit muscle GAPDH at 0.5 mM incubated for 24 hrs relative to control
# Sequence of Glyceraldehyde-3-phosphate dehydrogenase (Oryctolagus cuniculus) (P46406 whole entry, looked up): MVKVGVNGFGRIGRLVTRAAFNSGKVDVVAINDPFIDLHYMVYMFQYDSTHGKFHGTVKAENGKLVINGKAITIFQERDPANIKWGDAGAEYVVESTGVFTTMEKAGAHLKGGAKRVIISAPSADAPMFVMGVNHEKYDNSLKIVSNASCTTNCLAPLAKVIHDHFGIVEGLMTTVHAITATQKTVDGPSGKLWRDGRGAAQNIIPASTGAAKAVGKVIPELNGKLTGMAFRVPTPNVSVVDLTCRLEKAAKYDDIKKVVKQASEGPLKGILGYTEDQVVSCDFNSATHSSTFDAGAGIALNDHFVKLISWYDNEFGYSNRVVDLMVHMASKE
# [4] = biological target: T1, Glyceraldehyde-3-phosphate dehydrogenase; experiment: Irreversible inhibition of GAPDH (unknown origin) assessed as ratio of Kinact/Ki
# Target sequence in this assay (P04406 2-335 limits assumed): as the sequence (P04406 2-335 limits assumed) above
# [5] = biological target: T1, Glyceraldehyde-3-phosphate dehydrogenase; experiment: Irreversible inhibition of GAPDH (unknown origin) assessed as ratio of Kinact/Ki at slow phase
# Target sequence in this assay (P04406 2-335 limits assumed): as above
# [6] = biological target: T1, Glyceraldehyde-3-phosphate dehydrogenase; experiment: Irreversible inhibition of GAPDH (unknown origin) assessed as ratio of Kinact/Ki at fast phase
# Target sequence in this assay (P04406 2-335 limits assumed): as above
structure (smiles),measurement,setting,value
O=C(CBr)P(=O)(O)O,K,[1],3.5 10^4/M/s
same,K,Saccharomyces cerevisiae,5.4 10^4/M/s
CCC(O)/C=C/C=O (stereo not given),IC50,[2],39.1 µM
O=C(CCl)P(=O)(O)O,K,Saccharomyces cerevisiae,2.8 10^4/M/s
O=C(O)/C=C/C(=O)O,inhibition,[3],20%
C=CC(C)=O,Ratio,[4],128 M⁻¹ s⁻¹
COC(=O)/C=C/C(=O)OC,Ratio,[5],10.9 M⁻¹ s⁻¹
same,Ratio,[6],18.3 M⁻¹ s⁻¹
C=CC#N,Ratio,[4],9.2 M⁻¹ s⁻¹
CCCCCC(O)/C=C/C=O (stereo not given) [4-HYDROXYNON-2-ENAL],IC50,[2],50 µM
